Results: ChEMBL document CHEMBL4507292 (2021)

Tests used:
[1] = target: Interstitial collagenase (Homo sapiens) (UniProt P03956); assay: Inhibition of Peptidase, Matrix Metalloproteinase-1 (MMP-1) at 10 µM in the Eurofins-Panlabs enzyme assay (Eurofins_assay_114110); details: Compound concentration 10.0 uM
[2] = target: Melanocortin receptor 3 (Homo sapiens) (UniProt P41968); assay: Inhibition of Melanocortin MC3 at 10 µM in the Eurofins-Panlabs radioligand binding assay (Eurofins_assay_251300); parameters: ligand concentration 0.035 nM; details: Compound concentration 10.0 uM
Chain of Melanocortin receptor 3 (Homo sapiens) (P41968 whole entry): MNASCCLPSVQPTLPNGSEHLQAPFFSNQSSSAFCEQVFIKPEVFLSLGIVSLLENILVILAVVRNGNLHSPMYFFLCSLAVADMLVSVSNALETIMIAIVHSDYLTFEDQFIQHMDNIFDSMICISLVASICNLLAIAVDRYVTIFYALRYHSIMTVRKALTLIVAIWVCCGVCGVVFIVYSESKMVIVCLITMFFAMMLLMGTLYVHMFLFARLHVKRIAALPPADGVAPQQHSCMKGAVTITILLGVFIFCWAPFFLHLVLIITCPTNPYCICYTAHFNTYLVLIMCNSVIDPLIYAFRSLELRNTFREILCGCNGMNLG

[3] = target: Adenosine receptor A2a (Homo sapiens) (UniProt P29274); details: Compound concentration 10.0 uM
Chain of Adenosine receptor A2a (Homo sapiens) (P29274 whole entry): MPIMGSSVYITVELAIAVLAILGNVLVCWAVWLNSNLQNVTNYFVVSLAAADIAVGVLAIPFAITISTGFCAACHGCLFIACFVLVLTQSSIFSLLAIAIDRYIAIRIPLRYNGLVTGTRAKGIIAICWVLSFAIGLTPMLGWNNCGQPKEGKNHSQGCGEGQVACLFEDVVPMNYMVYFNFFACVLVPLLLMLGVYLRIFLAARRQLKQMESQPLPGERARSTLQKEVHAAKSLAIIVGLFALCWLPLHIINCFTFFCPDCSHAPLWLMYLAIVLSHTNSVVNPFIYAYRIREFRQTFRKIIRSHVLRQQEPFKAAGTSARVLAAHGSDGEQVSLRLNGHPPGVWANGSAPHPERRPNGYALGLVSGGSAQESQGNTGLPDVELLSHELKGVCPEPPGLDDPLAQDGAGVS

[4] = target: Adenosine Transporter (Cavia porcellus) (UniProt H0V4R7+H0UUG1+H0V3Z5); assay: Inhibition of Transporter, Adenosine at compound concentration of 10.0 uM in the Eurofins-Panlabs radioligand binding assay (Eurofins_assay_202000); format: protein assay; parameters: ligand concentration 0.5 nM, non-specific ligand with concentration 5 uM Nitrobenzylthioinosine, incubation time 30 min, incubation temperature 25 C; details: Compound concentration 10.0 uM
[5] = target: Vasoactive intestinal polypeptide receptor 1 (Homo sapiens) (UniProt P32241); assay: Inhibition of Vasoactive Intestinal Peptide VIP1 at 10 µM in the Eurofins-Panlabs radioligand binding assay (Eurofins_assay_287010); details: Compound concentration 10.0 uM
Chain of Vasoactive intestinal polypeptide receptor 1 (Homo sapiens) (P32241 whole entry): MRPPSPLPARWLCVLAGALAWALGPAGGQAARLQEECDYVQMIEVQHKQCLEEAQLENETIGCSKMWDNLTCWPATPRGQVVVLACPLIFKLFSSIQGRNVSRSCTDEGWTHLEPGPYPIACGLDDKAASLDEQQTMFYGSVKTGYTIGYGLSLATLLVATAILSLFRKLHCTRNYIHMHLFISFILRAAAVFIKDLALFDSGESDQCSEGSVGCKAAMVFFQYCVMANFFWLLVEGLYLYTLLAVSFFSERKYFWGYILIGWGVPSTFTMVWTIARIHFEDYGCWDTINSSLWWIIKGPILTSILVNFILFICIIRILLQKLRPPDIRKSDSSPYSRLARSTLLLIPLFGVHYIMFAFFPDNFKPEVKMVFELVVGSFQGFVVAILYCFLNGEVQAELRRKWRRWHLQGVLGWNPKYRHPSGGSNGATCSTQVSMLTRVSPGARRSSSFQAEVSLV

[6] = target: ATP-sensitive inward rectifier potassium channel 11 (Cricetulus griseus) (UniProt A0A3L7HHE1); assay: Inhibition of Potassium Channel [KATP] at 10 µM in the Eurofins-Panlabs radioligand binding assay (Eurofins_assay_265600); details: Cricetinae; Compound concentration 10.0 uM
[7] = target: Cholecystokinin receptor type A (Homo sapiens) (UniProt P32238); assay: Inhibition of Cholecystokinin CCK1 (CCKA) at 10 µM in the Eurofins-Panlabs radioligand binding assay (Eurofins_assay_218020)
Chain of Cholecystokinin receptor type A (Homo sapiens) (P32238 whole entry): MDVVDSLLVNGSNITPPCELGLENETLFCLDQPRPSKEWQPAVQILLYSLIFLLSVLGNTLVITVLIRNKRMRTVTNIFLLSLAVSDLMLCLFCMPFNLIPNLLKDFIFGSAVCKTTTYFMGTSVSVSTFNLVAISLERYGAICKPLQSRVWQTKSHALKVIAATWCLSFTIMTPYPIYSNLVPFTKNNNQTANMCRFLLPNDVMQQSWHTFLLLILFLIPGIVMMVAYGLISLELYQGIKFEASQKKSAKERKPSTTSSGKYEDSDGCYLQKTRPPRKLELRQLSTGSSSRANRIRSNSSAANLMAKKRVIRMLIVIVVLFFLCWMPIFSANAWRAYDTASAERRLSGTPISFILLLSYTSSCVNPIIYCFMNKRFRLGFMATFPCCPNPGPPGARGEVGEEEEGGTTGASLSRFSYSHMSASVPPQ

Homo sapiens [8] = organism: Homo sapiens; assay: (§1) Inhibition of Phosphodiesterase PDE4 at compound concentration of 10.0 uM in the Eurofins-Panlabs enzyme assay (Eurofins_assay_154000); format: protein assay; parameters: substrate with concentration 1.01 uM [3 H]cAMP + cAMP, incubation time 20 min, incubation temperature 25 C
[9] = as §1; format: protein assay, Homo sapiens; parameters: substrate with concentration 1.01 uM [3 H]cAMP + cAMP, incubation time 20 min, incubation temperature 25 C
[10] = target: Sodium-dependent dopamine transporter (Homo sapiens, UniProt Q01959); assay: Inhibition of Transporter, Dopamine (DAT) at compound concentration of 10.0 uM in the Eurofins-Panlabs radioligand binding assay (Eurofins_assay_220320); parameters: ligand concentration 0.15 nM, non-specific ligand with concentration 10 uM Nomifensine, incubation time 3 h, incubation temperature 4 C
Chain of Sodium-dependent dopamine transporter (Q01959 whole entry): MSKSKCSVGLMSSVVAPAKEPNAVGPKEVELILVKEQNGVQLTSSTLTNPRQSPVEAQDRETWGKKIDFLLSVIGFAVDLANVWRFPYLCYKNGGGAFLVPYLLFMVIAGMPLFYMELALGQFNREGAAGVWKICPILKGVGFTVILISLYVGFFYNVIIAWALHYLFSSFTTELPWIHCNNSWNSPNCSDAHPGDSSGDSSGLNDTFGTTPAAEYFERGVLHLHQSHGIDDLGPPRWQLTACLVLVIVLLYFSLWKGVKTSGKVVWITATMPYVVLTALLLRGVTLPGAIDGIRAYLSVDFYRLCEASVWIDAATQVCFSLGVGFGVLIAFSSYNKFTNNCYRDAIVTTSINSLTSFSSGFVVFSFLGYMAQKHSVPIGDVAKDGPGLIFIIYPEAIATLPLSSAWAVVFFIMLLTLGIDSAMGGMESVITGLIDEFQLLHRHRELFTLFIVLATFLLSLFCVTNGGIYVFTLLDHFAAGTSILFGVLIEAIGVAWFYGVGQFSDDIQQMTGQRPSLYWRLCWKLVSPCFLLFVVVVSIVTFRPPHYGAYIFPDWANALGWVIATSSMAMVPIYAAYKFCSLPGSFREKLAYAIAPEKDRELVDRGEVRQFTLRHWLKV

Homo sapiens [11] = organism: Homo sapiens; assay: (§2) Prostanoid, Thromboxane A2 (TP) Eurofins-Panlabs radioligand binding assay; parameters: ligand concentration 5 nM, non-specific ligand with concentration 1 µM SQ-29548, incubation time 30 min, incubation temperature 25 °C
[12] = as §2; parameters: species or system Homo sapiens; ligand concentration 5 nM, non-specific ligand with concentration 1 µM SQ-29548, incubation time 30 min, incubation temperature 25 °C
[13] = target: T1, Alpha-2C adrenergic receptor (Homo sapiens) (UniProt P18825); assay: (§3) Adrenergic alpha2C Eurofins-Panlabs radioligand binding assay; parameters: ligand concentration 1 nM, non-specific ligand with concentration 10 µM WB-4101, incubation time 60 min, incubation temperature 25 °C
T1 sequence (whole entry): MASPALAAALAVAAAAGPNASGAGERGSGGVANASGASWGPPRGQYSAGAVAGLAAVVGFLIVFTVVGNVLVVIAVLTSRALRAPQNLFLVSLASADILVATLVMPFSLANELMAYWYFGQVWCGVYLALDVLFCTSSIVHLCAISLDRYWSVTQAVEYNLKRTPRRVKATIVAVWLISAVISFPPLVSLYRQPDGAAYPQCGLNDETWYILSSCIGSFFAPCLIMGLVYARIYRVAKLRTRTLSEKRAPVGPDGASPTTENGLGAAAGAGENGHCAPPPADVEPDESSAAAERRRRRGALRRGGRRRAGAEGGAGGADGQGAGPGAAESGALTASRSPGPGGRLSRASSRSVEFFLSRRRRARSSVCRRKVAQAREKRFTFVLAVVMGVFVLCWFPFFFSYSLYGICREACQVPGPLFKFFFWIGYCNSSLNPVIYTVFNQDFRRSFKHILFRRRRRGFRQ

[14] = target: Alpha-2C adrenergic receptor (Homo sapiens, UniProt P18825); assay: as §3; parameters: ligand concentration 1 nM, non-specific ligand with concentration 10 µM WB-4101, incubation time 60 min, incubation temperature 25 °C
Rattus norvegicus [15] = organism: Rattus norvegicus; assay: Serotonin (5-Hydroxytryptamine) 5-HT2, Non-Selective Eurofins-Panlabs radioligand binding assay; format: protein assay; details: Compound concentration 10.0 uM
[16] = target: Galanin receptor type 2 (Homo sapiens) (UniProt O43603); assay: Galanin GAL2 Eurofins-Panlabs radioligand binding assay; parameters: ligand concentration 0.02 nM; details: Compound concentration 10.0 uM
Chain of Galanin receptor type 2 (Homo sapiens) (O43603 whole entry): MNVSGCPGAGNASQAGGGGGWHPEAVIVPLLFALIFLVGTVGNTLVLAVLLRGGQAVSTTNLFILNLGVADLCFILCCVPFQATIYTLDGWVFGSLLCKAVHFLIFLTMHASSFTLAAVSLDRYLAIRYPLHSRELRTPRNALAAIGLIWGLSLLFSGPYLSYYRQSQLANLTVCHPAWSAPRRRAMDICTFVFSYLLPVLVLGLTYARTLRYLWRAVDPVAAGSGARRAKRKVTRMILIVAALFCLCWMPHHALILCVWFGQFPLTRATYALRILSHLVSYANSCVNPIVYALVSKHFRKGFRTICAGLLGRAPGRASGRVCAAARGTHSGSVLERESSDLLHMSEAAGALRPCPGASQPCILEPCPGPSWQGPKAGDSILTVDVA

D(1A) dopamine receptor = D(1A) dopamine receptor (Homo sapiens, UniProt P21728); details: Compound concentration 10.0 uM
Chain of D(1A) dopamine receptor (P21728 whole entry): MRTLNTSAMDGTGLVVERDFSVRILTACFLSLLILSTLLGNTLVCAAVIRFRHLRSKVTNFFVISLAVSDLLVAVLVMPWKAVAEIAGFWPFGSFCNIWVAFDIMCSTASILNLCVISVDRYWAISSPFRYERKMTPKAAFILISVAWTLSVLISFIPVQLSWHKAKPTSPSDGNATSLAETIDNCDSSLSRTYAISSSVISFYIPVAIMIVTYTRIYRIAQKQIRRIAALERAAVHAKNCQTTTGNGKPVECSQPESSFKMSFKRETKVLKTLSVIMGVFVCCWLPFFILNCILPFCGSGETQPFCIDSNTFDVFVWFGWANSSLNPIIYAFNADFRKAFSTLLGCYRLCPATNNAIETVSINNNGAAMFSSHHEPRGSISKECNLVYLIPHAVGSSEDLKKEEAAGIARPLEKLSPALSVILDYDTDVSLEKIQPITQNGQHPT

[17] = target: Prostaglandin E2 receptor EP4 subtype (Homo sapiens) (UniProt P35408); assay: Prostanoid EP4 Eurofins-Panlabs radioligand binding assay; parameters: ligand concentration 0.5 nM; details: Compound concentration 10.0 uM
Chain of Prostaglandin E2 receptor EP4 subtype (Homo sapiens) (P35408 whole entry): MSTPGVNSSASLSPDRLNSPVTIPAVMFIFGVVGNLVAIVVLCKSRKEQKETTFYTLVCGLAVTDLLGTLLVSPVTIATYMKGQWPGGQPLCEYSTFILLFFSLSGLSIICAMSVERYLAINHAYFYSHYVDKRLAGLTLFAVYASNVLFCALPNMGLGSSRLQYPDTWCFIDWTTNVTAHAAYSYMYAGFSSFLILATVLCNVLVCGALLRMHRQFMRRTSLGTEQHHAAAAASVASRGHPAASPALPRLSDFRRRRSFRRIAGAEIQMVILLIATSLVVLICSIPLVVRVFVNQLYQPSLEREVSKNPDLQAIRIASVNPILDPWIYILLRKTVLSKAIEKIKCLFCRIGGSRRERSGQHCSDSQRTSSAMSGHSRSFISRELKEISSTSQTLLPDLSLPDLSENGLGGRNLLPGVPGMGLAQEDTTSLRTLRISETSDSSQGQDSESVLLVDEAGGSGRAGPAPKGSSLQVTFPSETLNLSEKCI

[18] = target: Somatostatin receptor type 3 (Homo sapiens) (UniProt P32745); assay: Somatostatin sst3 Eurofins-Panlabs radioligand binding assay; details: concentration not given here
Chain of Somatostatin receptor type 3 (Homo sapiens) (P32745 whole entry): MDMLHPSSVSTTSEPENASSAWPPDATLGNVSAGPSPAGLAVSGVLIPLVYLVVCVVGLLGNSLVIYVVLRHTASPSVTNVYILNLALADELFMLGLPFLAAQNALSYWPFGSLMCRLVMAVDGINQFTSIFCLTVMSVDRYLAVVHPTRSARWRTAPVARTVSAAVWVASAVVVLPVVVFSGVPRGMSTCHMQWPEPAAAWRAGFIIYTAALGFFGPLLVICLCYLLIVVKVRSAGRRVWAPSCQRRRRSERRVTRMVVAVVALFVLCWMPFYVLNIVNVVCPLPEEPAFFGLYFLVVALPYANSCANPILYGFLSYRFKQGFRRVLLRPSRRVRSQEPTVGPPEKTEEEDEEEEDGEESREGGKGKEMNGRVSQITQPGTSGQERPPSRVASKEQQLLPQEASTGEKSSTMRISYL

Rattus norvegicus [19] = organism: Rattus norvegicus; assay: Inhibition of Glutamate, NMDA, Phencyclidine at 10 µM in the Eurofins-Panlabs radioligand binding assay (Eurofins_assay_233000); format: protein-complex assay
Caspase-1 (Homo sapiens) = Caspase-1 (Homo sapiens) (UniProt P29466); assay: Inhibition of Peptidase, CASP1 (Caspase 1) at 10 µM in the Eurofins-Panlabs enzyme assay (Eurofins_assay_163000); details: Compound concentration 10.0 uM
Chain of Caspase-1 (Homo sapiens) (P29466 120-297 limits assumed): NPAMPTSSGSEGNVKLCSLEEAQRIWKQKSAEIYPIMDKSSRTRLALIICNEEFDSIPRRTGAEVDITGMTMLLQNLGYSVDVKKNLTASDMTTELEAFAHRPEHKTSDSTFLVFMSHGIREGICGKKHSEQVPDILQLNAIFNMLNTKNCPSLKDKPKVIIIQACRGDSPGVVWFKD
Chain of Caspase-1 (Homo sapiens) (P29466 317-404 limits assumed): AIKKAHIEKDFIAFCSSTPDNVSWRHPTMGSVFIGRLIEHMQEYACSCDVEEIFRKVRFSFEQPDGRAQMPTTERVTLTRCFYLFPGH

Homo sapiens [20] = organism: Homo sapiens; assay: (§4) Protein Serine/Threonine Kinase, MAPK14 (p38α) Eurofins-Panlabs enzyme assay; parameters: substrate with concentration 10 µg/mL Myelin Basic Protein (MBP), incubation time 60 min, incubation temperature 25 °C
[21] = as §4; parameters: species or system Homo sapiens; substrate with concentration 10 µg/mL Myelin Basic Protein (MBP), incubation time 60 min, incubation temperature 25 °C
[22] = target: T2, 5-hydroxytryptamine receptor 3A (Homo sapiens) (UniProt P46098); assay: Inhibition of Serotonin (5-Hydroxytryptamine) 5-HT3 at 10 µM in the Eurofins-Panlabs radioligand binding assay (Eurofins_assay_271910); parameters: ligand concentration 0.69 nM; details: Compound concentration 10.0 uM
T2 sequence (whole entry): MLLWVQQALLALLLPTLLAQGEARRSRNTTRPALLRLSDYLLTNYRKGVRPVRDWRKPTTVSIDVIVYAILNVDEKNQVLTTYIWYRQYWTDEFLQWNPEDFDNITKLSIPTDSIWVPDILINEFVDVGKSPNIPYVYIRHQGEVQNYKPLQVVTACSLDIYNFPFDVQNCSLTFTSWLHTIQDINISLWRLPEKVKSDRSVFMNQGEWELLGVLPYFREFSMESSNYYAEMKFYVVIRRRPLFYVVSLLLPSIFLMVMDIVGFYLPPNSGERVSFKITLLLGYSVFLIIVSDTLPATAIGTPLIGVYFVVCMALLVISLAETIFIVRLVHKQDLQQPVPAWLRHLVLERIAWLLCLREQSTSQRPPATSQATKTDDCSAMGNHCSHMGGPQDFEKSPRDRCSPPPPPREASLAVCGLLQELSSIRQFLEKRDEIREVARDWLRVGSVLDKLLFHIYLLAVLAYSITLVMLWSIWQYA

[23] = (§5) Protein Serine/Threonine Kinase, PKA, Non-Selective Eurofins-Panlabs enzyme assay; format: protein-complex assay, Bos taurus; parameters: substrate with concentration 370 µg/mL Histone Type III-S, incubation time 15 min, incubation temperature 25 °C
Bos taurus = organism: Bos taurus; assay: as §5; format: protein-complex assay; parameters: substrate with concentration 370 µg/mL Histone Type III-S, incubation time 15 min, incubation temperature 25 °C
[24] = target: Type-2 angiotensin II receptor (Homo sapiens) (UniProt P50052); assay: Angiotensin AT2 Eurofins-Panlabs radioligand binding assay; format: protein assay; details: Compound concentration 10.0 uM
Chain of Type-2 angiotensin II receptor (Homo sapiens) (P50052 whole entry): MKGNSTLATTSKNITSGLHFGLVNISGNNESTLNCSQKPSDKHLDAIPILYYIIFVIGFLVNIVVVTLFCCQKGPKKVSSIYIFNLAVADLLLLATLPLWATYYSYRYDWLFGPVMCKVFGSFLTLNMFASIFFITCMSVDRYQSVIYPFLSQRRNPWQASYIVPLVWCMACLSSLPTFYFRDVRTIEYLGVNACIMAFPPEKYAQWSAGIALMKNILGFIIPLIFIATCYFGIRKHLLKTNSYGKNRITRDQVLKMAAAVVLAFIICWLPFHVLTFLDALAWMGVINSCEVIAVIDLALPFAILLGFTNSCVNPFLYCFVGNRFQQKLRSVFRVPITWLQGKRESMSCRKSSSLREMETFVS

[25] = Compound concentration 100.0 uM

Compound: O=C(O)c1cc(-c2ccc(C3CCNCC3)cc2)c2ccc(-c3ccc(C(F)(F)F)cc3)cc2c1 [PPTN]
- inhibition [1]: -10%
- inhibition [2]: 34%
- inhibition [3]: 38%
- inhibition [4]: 9%
- inhibition [5]: 3%
- inhibition [6]: 1%
- inhibition [7]: 10%
- inhibition (Homo sapiens [8]; Compound concentration 0.1 uM): -6%
- inhibition (Homo sapiens [8]; Compound concentration 1.0 uM): 0%
- inhibition (Homo sapiens [8]; Compound concentration 10.0 uM): 24%
- inhibition (Homo sapiens [8]; [25]): 49%
- IC50 [9]: 100 µM
- IC50 [10]: 2.31 µM
- Ki [10]: 1.83 µM
- inhibition (Homo sapiens [11]; Compound concentration 0.01 uM): 14%
- inhibition (Homo sapiens [11]; Compound concentration 0.1 uM): -5%
- inhibition (Homo sapiens [11]; Compound concentration 1.0 uM): 9%
- inhibition (Homo sapiens [11]; Compound concentration 10.0 uM): 51%
- IC50 [12]: 9.5 µM
- Ki [12]: 6.2 µM
- inhibition ([13]; Compound concentration 0.01 uM): -4%
- inhibition ([13]; Compound concentration 0.1 uM): -2%
- inhibition ([13]; Compound concentration 1.0 uM): 6%
- inhibition ([13]; Compound concentration 10.0 uM): 63%
- IC50 [14]: 6.88 µM
- Ki [14]: 1 µM
- inhibition (Rattus norvegicus [15]): 0%
- inhibition [16]: 31%
- inhibition (D(1A) dopamine receptor): 22%
- inhibition [17]: 37%
- inhibition [18]: 35%
- inhibition (Rattus norvegicus [19]): 17%
- inhibition (Caspase-1 (Homo sapiens)): -1%
- inhibition (Homo sapiens [20]; Compound concentration 0.01 uM): 9%
- inhibition (Homo sapiens [20]; Compound concentration 0.1 uM): 0%
- inhibition (Homo sapiens [20]; Compound concentration 1.0 uM): -7%
- IC50 [21]: 0.00294 µM
- inhibition [22]: 8%
- IC50 [23]: 11.4 µM
- inhibition (Bos taurus; Compound concentration 0.1 uM): -10%
- inhibition (Bos taurus; Compound concentration 1.0 uM): 9%
- inhibition (Bos taurus; Compound concentration 10.0 uM): 46%
- inhibition (Bos taurus; [25]): 91%
- inhibition [24]: 11%
